Data: patent US20250333530A1 (Hoffmann-La Roche Inc., priority 2024, published 2025)
“Also recorded” adds a separate entry of the source.

Assays:
serum cytokines [1] = conditions: day 10
Procedure: Cytokine measurement was carried out with the Luminex™ FLEXMAP 3D™ system using Bio-Plex Pro Human Cytokine Assay according to the manufacturer's instruction.

serum cytokines [2] = assay: Dexamethasone scheduling with glofitamab: serum cytokines by multiplex assay; assay type: in vivo, humanized BRGS-CD47 mice; conditions: for Serum cytokine levels 4 hours after the first glofitamab injection: glofitamab 0.15 mg/kg i.v., dexamethasone co-administered in Groups C-G (2-6 mg/kg orally)
Procedure: Group B animals (n=14) were injected intravenously with glofitamab only (0.15 mg/kg at first and 0.5 mg/kg at subsequent injections in 200 μL of histidine buffer) once weekly for 5 weeks.
Serum was prepared by centrifugation.
Serum was collected and stored at −20° C. Serum samples were diluted 1:10 and used for the analysis of different cytokines/chemokines using the Bio-Plex Pro™ Human Chemokine Panel, 40-Plex system (Catalog No. 171AK99MR2; Bio-Rad; Hercules, CA), following the manufacturer's instructions.

OCI-Ly18 tumor = assay: Dexamethasone scheduling with glofitamab, gemcitabine and oxaliplatin: tumor growth; assay type: in vivo, humanized BRGS-CD47 mice
Procedure: Human OCI-Ly18 (Diffuse Large B-Cell Lymphoma; DLBCL) cells were originally obtained from ATCC and subsequently expanded and deposited in the Roche Glycart internal cell bank. Cells were cultured in RPMI medium containing 10% fetal calf serum (FCS) and 1× GLUTAMAX®. The cells were maintained at 37° C. in a water-saturated atmosphere with 5% CO2. A 50 μL cell suspension (5×10^6 OCI-Ly18 cells) mixed with 50 μL Matrigel was injected subcutaneously into the flank of anesthetized mice using a 22G to 30G needle. […] Health monitoring was performed regularly. At the appropriate time, mice were injected subcutaneously with tumor cells as described and treated with the compounds or histidine buffer (Vehicle; Group A) when tumor size reached approximately 200 mm^3 (Day 7). […] Gemcitabine and oxaliplatin were injected intraperitoneally (i.p.), glofitamab intravenously (i.v.), and dexamethasone was administered via oral gavage. Groups A-D received no dexamethasone: • Group A: vehicle (control group). • Group B: glofitamab monotherapy • Group C: gemcitabine and oxaliplatin. • Group D: glofitamab, gemcitabine and oxaliplatin. […] [table] All mice were injected with the appropriate solutions. […] Subsequent combination treatments were carried out concomitantly. To obtain the proper amount of compounds per injection volume, the stock solutions (Table 20) were diluted with histidine buffer when necessary. Tumor growth was measured three times weekly using a caliper and tumor volume was calculated as followed: The study was terminated at day 60 after a total of 7 cycles of treatment.

[3] = in vivo

Serum IFN-γ and IL-2 (serum cytokines [1]; Groups F and H)	Serum MCP-1 and IL-8 (serum cytokines [1]; Groups F and H)	CRS-related serum cytokines, such as IL-6, vs glofitamab monotherapy group (serum cytokines [1]; additional dexamethasone injection 24 hours post glofitamab (Groups F and H))	Serum cytokine levels 28 hours after the first glofitamab injection vs glofitamab only (serum cytokines [2]; 1 or 2 dexamethasone doses prior to glofitamab only (Groups C and E))	IL-6 with dexamethasone post treatment dose (serum cytokines [2]; 24 hours post-glofitamab administration, 28 hours post-glofitamab time point)	Compound	IL-6 and IL-10 levels with additional dexamethasone premedication dose (serum cytokines [2]; 24-hour pre-glofitamab administration)	Levels of some cytokines (e.g., GM-CSF), second dexamethasone dose prior to glofitamab vs only 1 dose (serum cytokines [2]; Groups D-G, 4 hours after first glofitamab injection)	Serum cytokine levels 28 hours after the first glofitamab injection (serum cytokines [2]; dexamethasone prior to and after glofitamab injection (Groups D and F), mainly IL-6, MIP1β, MIP1α, TNFα reduced)	Serum cytokine levels 4 hours after the first glofitamab injection (serum cytokines [2])	Anti-tumor effect of glofitamab + gemcitabine + oxaliplatin with added dexamethasone (OCI-Ly18 tumor; dexamethasone 4 mg/kg p.o., Groups E-H, correlated with frequency of dexamethasone administration)	Anti-tumor effect vs CD20-TCB and chemotherapy without dexamethasone (OCI-Ly18 tumor; dexamethasone 4 mg/kg p.o., Groups G and H (most frequent injections), study termination)	Serum cytokine levels after the second glofitamab injection (serum cytokines [2]; 0.5 mg/kg, much lower than after the first cycle)	Serum cytokine levels 28 hours after the first glofitamab injection (serum cytokines [2]; glofitamab monotherapy (Group B))	Pharmacokinetics on co-administration with gemcitabine or oxaliplatin [3]	Tumor growth (tumor volume) up to day 60 (OCI-Ly18 tumor; 7 weekly cycles, glofitamab 0.15/0.5 mg/kg i.v., gemcitabine/oxaliplatin 50/3 mg/kg i.p., no dexamethasone (Groups B-D))
did not show as strong a reduction	statistically reduced	significant reduction	No difference in cytokine levels	mitigated IL-6 at the later time point	C[C@@H]1C[C@H]2[C@@H]3CCC4=CC(=O)C=C[C@]4(C)[C@@]3(F)[C@@H](O)C[C@]2(C)[C@@]1(O)C(=O)COP(=O)(O)O [dexamethasone, Dexamethasone sodium phosphate]	reduced IL-6, and to some extent IL-10 levels, at the early time point, with no mitigation capacity at the later time point	further reduced the levels of some cytokines	effectively mitigated cytokine levels for an extended duration; also recorded: very low cytokine levels	significantly reduced cytokine levels	improvement in anti-tumor effects	statistically significant better anti-tumor effects				
					glofitamab: anti-CD20/anti-CD3 bispecific antibody, 2:1 configuration; CAS 2229047-91-8				strong cytokine release			did not show an increase in cytokine levels	higher cytokine levels	not affected	initially elicited a robust inhibition of tumor growth, which was subsequently followed by tumor recurrence in all treated mice
